The results in this text go back to US20100317850A1 (priority 2008, published 2010).

The subject of the assay is Aβ42 production. Description: Quantification of Aβ peptide in culture of neurons from rat fetus brain (Aβ ELISA). The settings on record: Neuron, 72 h; rat primary neuronal culture (cerebral cortex, embryonic day 18 Wistar rats); medium collected three days after addition of the compound; Aβx-42 ELISA; read-out: Aβ42 production reducing effect IC50. In kind it is cell-based. The method in brief:
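Primary cortical neurons from embryonic day 18 Wistar rats were cultured 4 days, then exposed to compound in Neurobasal/B27 without 2-ME, final DMSO ≤1%. After three days, medium was collected and Aβx-42 measured undiluted by sandwich ELISA.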
For orientation: ELISA stands for enzyme-linked immunosorbent assay.

The IC50 is the concentration at which inhibition is half-maximal.

As to `NC1=N[C@@]2(c3cc(NC(=O)c4nccs4)ccc3F)CCC[C@H]2CS1` (single isomer, unassigned) [Example 137, N-[3-((4aR*,7aS*)-2-amino-4a,5,6,7-tetrahydro-4H-cyclopenta[d][1,3]thiazin-7a-yl)-4-fluorophenyl]-thiazole-2-carboxamide], the IC50 stood at 47 nM. `NC1=N[C@@]2(c3cc(NC(=O)c4ccc(C(F)F)cn4)ccc3F)CCC[C@H]2CS1` (single isomer, unassigned) [Example 141, N-[3-((4aR*,7aS*)-2-amino-4a,5,6,7-tetrahydro-4H-cyclopenta[d][1,3]thiazin-7a-yl)-4-fluorophenyl]-5-difluoromethylpyridine-2-carboxamide]: the IC50 was determined as 16 nM. On to `NC1=N[C@@]2(c3cc(NC(=O)c4ccc(Br)cn4)ccc3F)CCOC[C@H]2CS1` (single isomer, unassigned) [Example 142, N-[3-((4aS*,8aS*)-2-amino-4a,5,7,8-tetrahydro-4H-6-oxa-3-thia-1-azanaphthalen-8a-yl)-4-fluorophenyl]-5-bromopyridine-2-carboxamide], for which the IC50 came out at 10 nM. With `NC1=N[C@@]2(c3cc(NC(=O)c4ncc(F)cc4F)ccc3F)CCC[C@H]2CS1` (single isomer, unassigned) [Example 168, N-[3-((4aR*,7aS*)-2-amino-4a,5,6,7-tetrahydro-4H-cyclopenta[d][1,3]thiazin-7a-yl)-4-fluorophenyl]-3,5-difluoropyridine-2-carboxamide], the IC50 was 16 nM. The result for `NC1=N[C@@]2(c3cc(NC(=O)c4ccc(C(F)(F)F)cn4)ccc3F)CCC[C@H]2CS1` (single isomer, unassigned) [Example 169, N-[3-((4aR*,7aS*)-2-amino-4a,5,6,7-tetrahydro-4H-cyclopenta[d][1,3]thiazin-7a-yl)-4-fluorophenyl]-5-trifluoromethylpyridine-2-carboxamide] reads 27 nM. For `NC1=N[C@@]2(c3cc(NC(=O)c4ncccc4C(F)(F)F)ccc3F)CCC[C@H]2CS1` (single isomer, unassigned) [Example 170, N-[3-((4aR*,7aS*)-2-amino-4a,5,6,7-tetrahydro-4H-cyclopenta[d][1,3]thiazin-7a-yl)-4-fluorophenyl]-3-trifluoromethylpyridine 2-carboxamide], the IC50 amounted to 210 nM.

`NC1=N[C@@]2(c3cc(NC(=O)c4ncccc4F)ccc3F)CCC[C@H]2CS1` (single isomer, unassigned) [Example 171, N-[3-((4aR*,7aS*)-2-amino-4a,5,6,7-tetrahydro-4H-cyclopenta[d][1,3]thiazin-7a-yl)-4-fluorophenyl]-3-fluoropyridine-2-carboxamide]: the IC50 stood at 89 nM. Take `NC1=N[C@@]2(c3cc(NC(=O)c4ccc(Br)cn4)ccc3F)CCC[C@H]2CS1` (single isomer, unassigned) [Example 172, N-[3-((4aR*,7aS*)-2-amino-4a,5,6,7-tetrahydro-4H-cyclopenta[d][1,3]thiazin-7a-yl)-4-fluorophenyl]-5-bromopyridine-2-carboxamide]: the IC50 was found to be 7 nM. `NC1=N[C@@]2(c3cc(NC(=O)c4ncccc4Br)ccc3F)CCC[C@H]2CS1` (single isomer, unassigned) [Example 173, N-[3-((4aR*,7aS*)-2-amino-4a,5,6,7-tetrahydro-4H-cyclopenta[d][1,3]thiazin-7a-yl)-4-fluorophenyl]-3-bromopyridine-2-carboxamide]: the half-inhibitory concentration (IC50) turned out to be 72 nM. On to `COc1ccc(C(=O)Nc2ccc(F)c([C@]34CCC[C@H]3CSC(N)=N4)c2)nc1` (single isomer, unassigned) [Example 174, N-[3-((4aR*,7aS*)-2-amino-4a,5,6,7-tetrahydro-4H-cyclopenta[d][1,3]thiazin-7a-yl)-4-fluorophenyl]-5-methoxypyridine-2-carboxamide], for which the IC50 worked out at 11 nM. As for `NC1=N[C@@]2(c3cc(NC(=O)c4ccc(OC(F)F)cn4)ccc3F)CCC[C@H]2CS1` (single isomer, unassigned) [Example 175, N-[3-((4aR*,7aS*)-2-amino-4a,5,6,7-tetrahydro-4H-cyclopenta[d][1,3]thiazin-7a-yl)-4-fluorophenyl]-5-difluoromethoxypyridine-2-carboxamide], the IC50 was 9 nM.

In the case of `NC1=N[C@@]2(c3cc(NC(=O)c4ncc(Br)cn4)ccc3F)CCC[C@H]2CS1` (single isomer, unassigned) [Example 176, N-[3-((4aR*,7aS*)-2-amino-4a,5,6,7-tetrahydro-4H-cyclopenta[d][1,3]thiazin-7a-yl)-4-fluorophenyl]-5-bromopyrimidine-2-carboxamide], the IC50 was determined as 10 nM. As for `COc1cnc(C(=O)Nc2ccc(F)c([C@]34CCC[C@H]3CSC(N)=N4)c2)cn1` (single isomer, unassigned) [Example 177, N-[3-((4aR*,7aS*)-2-amino-4a,5,6,7-tetrahydro-4H-cyclopenta[d][1,3]thiazin-7a-yl)-4-fluorophenyl]-5-methoxypyrazine-2-carboxamide], the IC50 worked out at 18 nM.

For `NC1=N[C@@]2(c3cc(NC(=O)c4cnc(OCC(F)(F)F)cn4)ccc3F)CCC[C@H]2CS1` (single isomer, unassigned) [Example 178, N-[3-((4aR*,7aS*)-2-amino-4a,5,6,7-tetrahydro-4H-cyclopenta[d][1,3]thiazin-7a-yl)-4-fluorophenyl]-5-(2,2,2-trifluoroethoxy)-pyrazine-2-carboxamide], the half-maximal inhibitory concentration (IC50) stood at 44 nM. For the molecule `NC1=N[C@@]2(c3cc(NC(=O)c4ccc(OCC(F)(F)F)cn4)ccc3F)CCC[C@H]2CS1` (single isomer, unassigned) [Example 179, N-[3-((4aR*,7aS*)-2-amino-4a,5,6,7-tetrahydro-4H-cyclopenta[d][1,3]thiazin-7a-yl)-4-fluorophenyl]-5-(2,2,2-trifluoroethoxy)-pyridine-2-carboxamide], the IC50 came out at 98 nM.

`NC1=N[C@@]2(c3cc(NC(=O)c4ncc(Cl)cc4Cl)ccc3F)CCC[C@H]2CS1` (single isomer, unassigned) [Example 180, N-[3-((4aR*,7aS*)-2-amino-4a,5,6,7-tetrahydro-4H-cyclopenta[d][1,3]thiazin-7a-yl)-4-fluorophenyl]-3,5-dichloropyridine-2-carboxamide]: the IC50 is 3 nM.

In the case of `NC1=N[C@@]2(c3cc(NC(=O)c4cnc(OCC(F)F)cn4)ccc3F)CCC[C@H]2CS1` (single isomer, unassigned) [Example 181, N-[3-((4aR*,7aS*)-2-amino-4a,5,6,7-tetrahydro-4H-cyclopenta[d][1,3]thiazin-7a-yl)-4-fluorophenyl]-5-(2,2-difluoroethoxy)-pyrazine-2-carboxamide], the IC50 came out at 47 nM. With `NC1=N[C@@]2(c3cc(NC(=O)c4ccc(OCC(F)F)cn4)ccc3F)CCC[C@H]2CS1` (single isomer, unassigned) [Example 182, N-[3-((4aR*,7aS*)-2-amino-4a,5,6,7-tetrahydro-4H-cyclopenta[d][1,3]thiazin-7a-yl)-4-fluorophenyl]-5-(2,2-difluoroethoxy)-pyridine-2-carboxamide], the IC50 came to 90 nM. Regarding `NC1=N[C@@]2(c3cc(NC(=O)c4cnc(OCCF)cn4)ccc3F)CCC[C@H]2CS1` (single isomer, unassigned) [Example 183, N-[3-((4aR*,7aS*)-2-amino-4a,5,6,7-tetrahydro-4H-cyclopenta[d][1,3]thiazin-7a-yl)-4-fluorophenyl]-5-(2-fluoroethoxy)-pyrazine-2-carboxamide], the IC50 was found to be 28 nM.

`NC1=N[C@@]2(c3cc(NC(=O)c4ncc(C(F)(F)F)cc4Cl)ccc3F)CCC[C@H]2CS1` (single isomer, unassigned) [Example 184, N-[3-((4aR*,7aS*)-2-amino-4a,5,6,7-tetrahydro-4H-cyclopenta[d][1,3]thiazin-7a-yl)-4-fluorophenyl]-3-chloro-5-trifluoromethyl-pyridine-2-carboxamide]: the IC50 worked out at 13 nM. As for `NC1=N[C@@]2(c3cc(NC(=O)c4ncc(Cl)cc4Cl)ccc3F)CCOC[C@H]2CS1` (single isomer, unassigned) [Example 185, N-[3-((4aS*,8aS*)-2-amino-4a,5,7,8-tetrahydro-4H-6-oxa-3-thia-1-azanaphthalen-8a-yl)-fluorophenyl]-3,5-dichloropyridine-2-carboxamide], the half-inhibitory concentration (IC50) worked out at 10 nM. As for `NC1=N[C@@]2(c3cc(NC(=O)c4ccc(C(F)(F)F)cn4)ccc3F)CCOC[C@H]2CS1` (single isomer, unassigned) [Example 186, N-[3-((4aS*,8aS*)-2-amino-4a,5,7,8-tetrahydro-4H-6-oxa-3-thia-1-azanaphthalen-8a-yl)-fluorophenyl]-5-trifluoromethylpyridine-2-carboxamide], the IC50 worked out at 30 nM. For `NC1=N[C@@]2(c3cc(NC(=O)c4ccc(F)cn4)ccc3F)CCOC[C@H]2CS1` (single isomer, unassigned) [Example 187, N-[3-((4aS*,8aS*)-2-amino-4a,5,7,8-tetrahydro-4H-6-oxa-3-thia-1-azanaphthalen-8a-yl)-4-fluorophenyl]-5-fluoropyridine-2-carboxamide], the IC50 was 54 nM. For `NC1=N[C@@]2(c3cc(NC(=O)c4ncc(F)cc4F)ccc3F)COC[C@H]2CS1` (single isomer, unassigned) [Example 188, N-[3-((4aS*,7aS*)-2-amino-4a,5-dihydro-4H-furo[3,4-d][1,3]thiazin-7a-yl)-4-fluorophenyl]-3,5-difluoropyridine-2-carboxamide], the IC50 is 22 nM.

Consider `NC1=N[C@@]2(c3cc(NC(=O)c4ncc(Cl)cc4Cl)ccc3F)COC[C@H]2CS1` (single isomer, unassigned) [Example 189, N-[3-((4aS*,7aS*)-2-amino-4a,5-dihydro-4H-furo[3,4-d][1,3]thiazin-7a-yl)-4-fluorophenyl]-3,5-dichloropyridine-2-carboxamide], for which the IC50 was found to be 8 nM.
